Results published in patent US6395293B2, “Biodegradable implant precursor” (Atrix Laboratories, priority 1989, dated 2002).

How the values were obtained:
[1] = Cumulative release of flurbiprofen from implant matrix at different polymer concentrations; assay type: physicochemical; details: about 5% flurbiprofen; for cumulative release: about 55% poly(DL-lactide); for cumulative percent release: polymer concentration about 45%
From the text: The release rate of the bioactive agent from the implant matrix may also be adjusted by varying the concentration of the polymer in the polymer solution. For example, the more dilute the polymer concentration, the more readily the bioactive agent will be released from the implant matrix. For example, in a system containing about 5% flurbiprofen and a polymer concentration of about 55% poly(DL-lactide), a cumulative release of about 11.4% at day 1 and about 23% at day 7 may be provided. With a polymer concentration of about 45%, the cumulative percent release is about 23% at day 1 and about 40% at day 7.

[2] = Ex vivo release of bioactive agent from poly(DL-lactide) implant matrix, with and without release rate modification agent; assay type: physicochemical
From the text: The use of a release rate modification agent may either decrease or increase the release of the bioactive agent in the range of multiple orders of magnitude (e.g., 1 to 10 to 100), preferably up to a ten-fold change, as compared to the release of a bioactive agent from a solid matrix without the release rate modification agent. For example, naltrexone and doxycycline are substantially completely released from a polymer matrix comprised of poly(DL-lactide) within about 2-3 days ex vivo. With the addition of a release rate modification agent such as ethyl heptanoate which is hydrophobic to the polymer solution, and formation of the implant matrix through interaction of the polymer solution and an aqueous medium, the release rate of naltrexone or doxycycline can be slowed to produce substantially complete release of the drug within about seven days. With the inclusion of a greater amount of a release rate modification agent into the polymer solution, the time period of the release can be increased to about fourteen days. Other release rate modification agents which are hydrophilic such as polyethylene glycol may increase the release of the bioactive agent. […]

cumulative release ([1]; day 1) | cumulative release ([1]; day 7) | cumulative percent release ([1]; day 1) | cumulative percent release ([1]; day 7) | Structure (SMILES) | time period of the release ([2]; poly(DL-lactide) matrix with a greater amount of release rate modification agent) | time to substantially complete release from polymer matrix ([2]; poly(DL-lactide) matrix with ethyl heptanoate added as release rate modification agent)
about 11.4% | about 23% | about 23% | about 40% | CC(C(=O)O)c1ccc(-c2ccccc2)c(F)c1 (stereo not drawn) [flurbiprofen] | – | –
– | – | – | – | O=C1CC[C@@]2(O)[C@H]3Cc4ccc(O)c5c4[C@@]2(CCN3CC2CC2)[C@H]1O5 [naltrexone] | about fourteen | about seven
